Reference: PubChem BioAssay AID608 (Sanford-Burnham Center for Chemical Genomics, 2007)
Calls of active or inactive are those of the source. How the calls were made is not given here.

molecular target: Peptidyl-prolyl cis-trans isomerase FKBP1A (Homo sapiens) (UniProt P62942); assay: FKBP12 binders, biophysical, NMR detection (AID 608); details: NMR binding, purified FKBP12
Sequence (P62942 whole entry, looked up): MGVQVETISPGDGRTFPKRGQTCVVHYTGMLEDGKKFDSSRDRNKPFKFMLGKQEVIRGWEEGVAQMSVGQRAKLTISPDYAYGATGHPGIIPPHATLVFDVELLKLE

SMILES	Kd
C=C1C(=O)OC2CC1C(OC(C)=O)C/C(C)=C/CC/C(C)=C/CC[C@]2(C)O (stereo partly specified)	> 4 mM (inactive)
O=c1/c(=C\c2cccnc2)sc2nc3ccccc3n12	> 4 mM (inactive)
Cn1c(=O)c2c(ncn2C)n(C)c1=O	> 4 mM (inactive)
Cc1ccsc1/C=c1\sc2ncnn2c1=O	> 4 mM (inactive)
O=C1CC(=O)N(c2ccccc2F)C(=S)N1	> 4 mM (inactive)
O=C(O)c1cccc2nsnc12	> 4 mM (inactive)
C=C(C)[C@H]1COc2cc3oc(=O)ccc3cc2O1	> 4 mM (inactive)
CC(=O)Nc1nc(-c2cccs2)cs1	> 4 mM (inactive)
O=C1NC(=Nc2ccc(O)cc2)S/C1=C/c1ccco1	> 4 mM (inactive)
C=CC(=O)N1CC2CC(C1)c1cccc(=O)n1C2 (stereo unspecified)	> 4 mM (inactive)
O=C(O)c1cccc(O)c1O	> 4 mM (inactive)
Cc1c(/C=N/O)cnn1C	> 4 mM (inactive)
O=C1CSC2=NCCCN12	> 4 mM (inactive)
Cc1nc2ccccc2c(=O)[nH]1	> 4 mM (inactive)
CN(C)CCNC(CC(=O)Nc1ccccc1)C(=O)O (stereo unspecified)	> 4 mM (inactive)
O=c1[nH]cnc2nc[nH]c12	> 4 mM (inactive)
CSc1ncnc2nc[nH]c12	> 4 mM (inactive)
CN(C)c1ccc(N2C(=O)CCC2=O)cc1	> 4 mM (inactive)
CNC(=O)COc1cccc2c1CCNC2=O	> 4 mM (inactive)
CC1=CC(=O)C2C(C)(C)CCC[C@]2(C)[C@@]1(O)CCc1ccoc1 (stereo partly specified)	> 4 mM (inactive)
O=S(=O)(N1CCCCC1)n1c(Cc2ccccc2)nc2ccccc21	> 4 mM (inactive)
O=C1NC(=O)C(=Cc2ccccc2)C(=O)N1	> 4 mM (inactive)
O=c1cc(-c2ccccc2)oc2cc(O)cc(O)c12	> 4 mM (inactive)
Cc1ccc2c(c1)=C(c1sc(N)nc1O)C(=O)N=2	> 4 mM (inactive)
Cn1c(O)c(C=NCC2CCNCC2)c(=O)n(C)c1=O	> 4 mM (inactive)

SMILES	Kd
O=C(c1ccc(Cl)s1)N1CCOCC1	> 4 mM (inactive)
O=C(O)CCC(=O)Nc1ccccn1	> 4 mM (inactive)
COc1ccc(NC(=O)CCCC(=O)O)c(OC)c1	> 4 mM (inactive)
NC(=O)c1ccsc1NC(=O)c1cccnc1	> 4 mM (inactive)
COc1cc(S(=O)(=O)Nc2cccnc2)ccc1F	> 4 mM (inactive)
CCC(=O)OC1[C@@H]2CC3=C4CC(=O)O[C@@H](c5ccoc5)[C@]4(C)CCC3C(C)(C2=O)[C@@H](CC(=O)OC)C1(C)C (stereo partly specified)	> 4 mM (inactive)
CCOC(=O)C1CCN(c2ccc(C#N)cc2)CC1	> 4 mM (inactive)
OC1CCC(C(F)(F)F)CC1 (stereo unspecified)	> 4 mM (inactive)
CCNC(CC(=O)Nc1cccc([N+](=O)[O-])c1)C(=O)O (stereo unspecified)	> 4 mM (inactive)
c1ccc2nc3c(nc2c1)CCc1nonc1-3	> 4 mM (inactive)
CN1CCN(C(=S)NC(=O)c2ccn(C)n2)CC1	> 4 mM (inactive)
NC(=O)C1CCN(c2ncnc(N)c2[N+](=O)[O-])CC1	> 4 mM (inactive)
NCCc1ccc(S(N)(=O)=O)cc1	> 4 mM (inactive)
CC1=C2C(=CO[C@H](C)[C@H]2C)C(=O)C(C(=O)O)=C1O	> 4 mM (inactive)
O=C(O)C1CCN(C(=O)c2cccs2)CC1	> 4 mM (inactive)
O=C1CSC(=Nc2ccccc2)N1	> 4 mM (inactive)
COCC(=O)N1CCCc2ccccc21	> 4 mM (inactive)
O=c1[nH]c2sc3c(c2c2nncn12)CCCC3	> 4 mM (inactive)
c1cnc(N2CCSCC2)nc1	> 4 mM (inactive)
OCC1CCN(c2ncccn2)CC1	> 4 mM (inactive)
CCOC(=O)CC1NCCNC1=O (stereo unspecified)	> 4 mM (inactive)
COc1cccc(/C=C/C(=O)O)c1C(C)C	> 4 mM (inactive)
COc1cc(N)ncn1	> 4 mM (inactive)
COc1ccccc1NC(=O)/C=N/O	> 4 mM (inactive)
c1cc(C(N2CCOCC2)N2CCOCC2)ccn1	> 4 mM (inactive)

SMILES	Kd
O=C(Cc1cccs1)N1CCOCC1	> 4 mM (inactive)
COc1ccc2c3c1O[C@H]1C[C@@H](O)C=C[C@@]31CCN(C)C2	> 4 mM (inactive)
c1ccc(Cc2nnc3sc(-c4ccncc4)nn23)cc1	> 4 mM (inactive)
O=C(O)c1ccc(-n2cccn2)cc1	> 4 mM (inactive)
CC(C)(C)C(=O)Nc1nnc(SCC(N)=O)s1	> 4 mM (inactive)
COc1ccc(S(N)(=O)=O)cc1	> 4 mM (inactive)
COC(=O)c1cccnc1Oc1ccccc1	> 4 mM (inactive)
CC(=O)O[C@H]1CCC2(C)C3=C(CCC2C1(C)C)[C@@]1(C)CC[C@@H](C(C)CCC=C(C)C)[C@]1(C)CC3 (stereo partly specified)	> 4 mM (inactive)
COC1=CC23CCCN2CCc2cc4c(cc2C3C1O)OCO4 (stereo unspecified)	> 4 mM (inactive)
CCC(C)C(=O)O[C@@H]1C[C@@]2(C)[C@H](c3ccoc3)OC(=O)CC23OC2(C)O[C@]14[C@]1(C)[C@@H](CC(=O)OC)C5(C)CC1(O)[C@](O)(C5OC(=O)C1(C)OC1C)[C@@H](OC(C)=O)[C@]34O2 (stereo partly specified)	> 4 mM (inactive)
Cc1cc(=O)oc2c1c(C)nn2CN1CCN(C)CC1	> 4 mM (inactive)
O=C(NC12CC3CC(CC(C3)C1)C2)c1cnccn1	> 4 mM (inactive)
O=S(=O)(c1cccc2cccnc12)N1CCOCC1	> 4 mM (inactive)
CCN1CCC(NC2CCCCNC2=O)CC1 (stereo unspecified)	> 4 mM (inactive)
Nc1cc(=O)[nH]c(=S)n1CCc1ccccc1	> 4 mM (inactive)
CC(=O)Nc1ccc(S(N)(=O)=O)cc1	> 4 mM (inactive)
FC(F)(F)c1cccc(Cn2c(-c3cscn3)nc3ccccc32)c1	inactive
COc1cc2cc3c4cc(OC)c(OC)cc4cc[n+]3c(C)c2cc1OC	> 4 mM (inactive)
O=C(Nc1cccnc1)c1cnn2cccnc12	> 4 mM (inactive)
COC1=CC(=O)C[C@@H](C)[C@]12Oc1c(Cl)c(OC)cc(OC)c1C2=O	> 4 mM (inactive)
Nc1cccnc1N1CCOCC1	> 4 mM (inactive)
S=C(Nc1ccc2nccnc2c1)N1CCOCC1	> 4 mM (inactive)
COc1cc([C@H]2Oc3cc([C@H]4Oc5cc(O)cc(O)c5C(=O)[C@@H]4O)ccc3O[C@@H]2CO)ccc1O	> 4 mM (inactive)
Cc1cc(=O)c2c(O)c(C)c(O)cc2o1	> 4 mM (inactive)
CN(C)N1C(=O)C2C3C=CC(O3)C2C1=O (stereo unspecified)	> 4 mM (inactive)

SMILES	Kd
O=C(Nc1nncs1)C1(c2ccccc2)CCCC1	> 4 mM (inactive)
C=C(C)CSc1nc2nc(C)cc(C)n2n1	> 4 mM (inactive)
COC1=CC(=O)C=C(OC)C1=O	> 4 mM (inactive)
O=C(Nc1ccccc1)c1cccc(N2C(=O)CCC2=O)c1	> 4 mM (inactive)
O=C(NCc1cccs1)c1nc2ncccn2n1	> 4 mM (inactive)
O=C(O)c1ccc2snnc2c1	> 4 mM (inactive)
CC1(C)C(=O)C=C[C@@]2(C)C1=C(O)C(=O)[C@]1(C)C2CC[C@@]2(C)[C@H](c3ccoc3)C[C@H]3O[C@]321 (stereo partly specified)	> 4 mM (inactive)
CC(C)(C)P(=O)(O)c1ccccc1	> 4 mM (inactive)
CSc1nc2nc(C)cc(=O)n2[nH]1	> 4 mM (inactive)
COc1c(O)cccc1O	> 4 mM (inactive)
Cn1c(-c2ccccc2F)n[nH]c1=S	> 4 mM (inactive)
O=C(/C=C/c1ccccc1)NC1CCS(=O)(=O)C1 (stereo unspecified)	> 4 mM (inactive)
O=C(O)CSc1cccc2cccnc12	> 4 mM (inactive)
Cc1cc(NC(=O)c2c(F)c(F)c(F)c(F)c2F)no1	> 4 mM (inactive)
OCc1ccc(-n2ccnc2)cc1	> 4 mM (inactive)
CC(=O)c1ccc2c(c1)OCCO2	> 4 mM (inactive)
S=C(CN1CCCC1=S)N1CCOCC1	> 4 mM (inactive)
CCCOn1nnnc1-c1ccccc1	> 4 mM (inactive)
O=C(CN1C(=O)c2cccc3cccc(c23)C1=O)NO	> 4 mM (inactive)
COc1ccccc1Nc1nncc(=O)[nH]1	> 4 mM (inactive)
O=C(COc1ccccc1F)N1CCOCC1	inactive
O=C1CSC(=S)N1Cc1cccnc1	> 4 mM (inactive)
O=C(O)c1cccc(CSc2ncccn2)c1	> 4 mM (inactive)
CC(=O)c1cnc2nc(C(F)(F)F)nn2c1C	> 4 mM (inactive)
Cc1cc(NC(=O)c2ccc3c(c2)OCCO3)no1	> 4 mM (inactive)

SMILES	Kd
COc1cc(O)c2c(=O)c(O)c(-c3ccc(O)c(O)c3)oc2c1	> 4 mM (inactive)
CC(=O)Nc1cnn(-c2ccccc2)c(=O)c1Cl	> 4 mM (inactive)
COc1ccc(NC(=O)N2CCCCC2)cc1	> 4 mM (inactive)
O=C(O)c1ccc2c(c1)OCCCO2	> 4 mM (inactive)
COc1ccc2c(c1)CCCN2C(N)=O	> 4 mM (inactive)
Cc1nc(N)sc1C(=O)N/N=C/c1ccncc1	> 4 mM (inactive)
O=C(O)c1ccc(NC(=O)c2cccs2)cc1	> 4 mM (inactive)
COc1ccc(C(=O)/C=C2\NC(=S)NC2=O)cc1	> 4 mM (inactive)
NC1=NC(=O)/C(=C\c2ccco2)S1	> 4 mM (inactive)
N#Cc1ccccc1CSc1ccccn1	> 4 mM (inactive)
O=C(Nc1nnc(-c2cccnc2)o1)c1ccccc1F	> 4 mM (inactive)
Oc1ccc(-c2n[nH]c(=S)n2Cc2ccco2)cc1	> 4 mM (inactive)
COCc1cc(=O)oc2cc(O)c(Cl)cc12	> 4 mM (inactive)
Cc1noc(C)c1C(=O)N1CCc2ccccc21	> 4 mM (inactive)
O=CN1CCN(C(=O)c2ccc(F)cc2)CC1	> 4 mM (inactive)
CNC(=O)C(=O)Nc1c(C)cccc1C	> 4 mM (inactive)
Cn1c(SCC(N)=O)nc2c1c(=O)[nH]c(=O)n2C	> 4 mM (inactive)
NNc1ncnc2sccc12	> 4 mM (inactive)
COC(=O)c1c(SC)nc(-c2ccccc2)[nH]c1=O	> 4 mM (inactive)
Cc1nnc(SCC(=O)N2CCCCC2)s1	> 4 mM (inactive)
CC(=O)Nc1ccc(NC(=O)c2ccncc2)cc1	> 4 mM (inactive)
